Assay results taken from patent publication US6906042B2, “Micelles” (Eisai Co., Ltd., priority 2000, dated 2005).
Values joined by “and” are separate entries in the source; they are usually repeats but may differ in a detail not shown here. Equal entries are not always repeated.

What was measured:
[1] = Micelle hydrodynamic diameter of E5564 before lyophilization and after reconstitution, admixture and storage
Source text: After lyophilization the micelles were reconstituted with water diluted in an aqueous dextrose solution (Table 2). […] (Table 2).

[2] = Micelle hydrodynamic diameter of E5564 through NaOH dissolution, lactose phosphate buffer, freeze-drying and re-hydration; details: upon freeze-drying
Source text: This solution was then combined with a lactose containing phosphate buffer solution to yield a solution pH of 7-8. […] This solution was then filtered through a 0.2 μm filter to render the solution sterile in the manner conventional to pharmaceutical manufacturing. The sterile solution was then filled into vials and freeze-dried.

[3] = E5564 micelle hydrodynamic diameter before and after simulated I.V. infusion using administration equipment (DLS); details: simulated administration conditions using representative infusion equipment
Source text: The following conditions apply to the data in Table 4: Microbore 60″ extension set with PVC free fluid path, No. V6212 (McGraw, Inc.); 3 cc syringe with Luer Lok, No. 309585 (Becton Dickenson); Injection site with Luer Lok, No. 2N1199 (Baxter); Needle, 20G 1, No. 305175 (Becton Dickenson); I.V. catheter, JELCO, No. 4050 (Johnson & Johnson Medical Inc.).

CCCCCC/C=C\CCCCCCCCCC(=O)N[C@H]1[C@H](OC[C@H]2O[C@H](OP(=O)(O)O)[C@H](NC(=O)CC(=O)CCCCCCCCCCC)[C@@H](OCCCCCCCCCC)[C@@H]2O)OC(COC)[C@@H](OP(=O)(O)O)[C@@H]1OCC[C@@H](CCCCCCC)OC (stereo partly shown) [Compound E5564]
micelle hydrodynamic diameter stability ([1]; […], or under refrigeration): stable | hydrodynamic diameter (nm) ([1]; admixed with 5% dextrose solution (0.14 mg/mL), storage for 24 hours at 25° C.): 8.1 nm | hydrodynamic diameter (nm) ([1]; admixed with 5% dextrose solution (0.14 mg/mL), storage for 72 hours at 2-8° C.): 7.7 nm | hydrodynamic diameter (nm) ([1]; immediately following admixture with 5% dextrose solution (0.14 mg/mL)): 7.7 nm and 6.8 nm | hydrodynamic diameter (nm) ([1]; immediately following reconstitution (0.5 mg/mL)): 8.6 nm and 7.7 nm and 6.9 nm | hydrodynamic diameter (nm) ([1]; reconstituted solution (0.5 mg/mL), storage for 24 hours at 25° C.): 8.2 nm | hydrodynamic diameter (nm) ([1]; reconstituted solution (0.5 mg/mL), storage for 72 hours at 2-8° C.): 8.3 nm | hydrodynamic diameter (nm) ([1]; reconstituted solution after storage of lyophilized drug product 6 months at 2-8° C.): 7.5 nm | hydrodynamic diameter (nm) ([1]; reconstituted solution after storage of lyophilized drug product 6 months at 25° C./60% RH): 7.3 nm and 7.2 nm | hydrodynamic diameter (nm) ([1]; reconstituted solution, lyophilized drug product, initial): 8.6 nm and 7.7 nm and 6.9 nm | hydrodynamic diameter (nm) ([1]; solutions prior to lyophilization): 7.6 nm and 7.4 nm and 7.9 nm | micelle hydrodynamic diameter stability [2]: stable | micelle hydrodynamic diameter stability [3]: stable
